Data published in the NIST ThermoML archive (doi:10.1016/j.tca.2010.05.009).
± gives the expanded uncertainty stated by the source.

Settings: Crystal; Differential scanning calorimeter

Normal melting temperature: 75.1 ± 1 °C
Structure (SMILES): CC(C)Cc1ccc(C(C)C(=O)O)cc1 (stereo unspecified) [ibuprofen]
